Measured values reported in article PMC6278857, “Anaerobic Degradation of the Plant Sugar Sulfoquinovose Concomitant With H2S Production: Escherichia coli K-12 and Desulfovibrio sp. Strain DF1 as Co-culture Model” (Frontiers in Microbiology, 2018).

Tested on: T1, DhpA (DHPS dehydrogenase)
T1 construct: full-length gene, N-terminal His-tag (pET28a), from E. coli Rosetta 2 DE3
Assay: initial rate of NADH formation at […] nm
Format: biochemical, Desulfovibrio sp. DF1
Conditions: 10 mM NAD+, 50 mM Tris-HCl, pH 9.5; racemic substrate; read-out: Kmapp

SMILES: O=S(=O)(O)CC(O)CO (racemic) [DHPS]
- Km: 36 ± 4 µM
